Reference: US9034583B2, “Rapid enzyme-linked immunosorbent assay for detection and identification of pathogens and determination of antimicrobial susceptibility” (priority 2013, dated 2015)

Experiments:
[1] = tested on: N. gonorrheae (Ceftriaxone Sensitive); assay: N-Assay antibiotic susceptibility, N. gonorrheae with Ceftriaxone (Example 6); assay type: cell-based, Neisseria gonorrheae; details: summary of Table 3
Method: (§1) Prior to performing the N-Assay, bacterial cultures were prepared as follows in order to establish the sensitivity of the assay. An inoculum was taken from a stock culture, and plated onto solid phase nutrient agar and incubated overnight at 37° C. E. faecalis, E. faecium (Vancomycin-Resistant Enterococcus, or VRE) and GBS isolates were plated onto colistin and naladixic acid agar, and N. gonorrheae was plated onto chocolate agar. The gonorrheal culture was performed in a CO2 incubator. Following an overnight culture, an isolated colony was selected of each bacterial species, and the isolated colonies were sub-cultured on solid phase for an additional 24 hours to ensure adequate viability was maintained. Following this, isolated cultures were used to inoculate nutrient broth (LIM broth was used for GBS, Fastidious broth with isovitalex 2% v/v for N. gonorrheae, and BHI broth was used for E. faecalis, E. faecium). A 0.5 McFarland was prepared for each bacterial species, and these were then diluted serially down to 10^−3 in nutrient broth and the OD630 immediately was determined. For each dilution, aliquots were obtained and agar plates were inoculated. The agar plates then were incubated at 37° C. for 24 hours, and the number of colony forming units (CFU) was determined for each bacterial species at each dilution. This was used to generate a standard curve, so that future dilutions when prepared could be developed with known concentrations of bacteria. […] A similar curve was generated for each bacteria studied.
(§2) Antibodies against selected bacteria were diluted 1:100 in coating buffer (carbonate bicarbonate buffer), and 100 μl were placed in microtiter wells and allowed to stand overnight at 4° C. The following day, wells were washed with PBS TWEEN 20 three times, and then blocked with 200 μl of STARTINGBLOCK for 30 minutes at room temperature. Following blocking, wells were washed three times with PBS TWEEN 20, and plates were either stored at 4° C. with a sterile cover placed over them for later use, or used immediately.
(§3) To determine antibiotic susceptibility of the four strains of bacteria, a 0.5 Mcfarland was prepared in nutrient broth and serially dilutions were established. The dilutions were incubated overnight for 18-24 hours at 37° C. (in a CO2 incubator for N. gonorrheae) with specific antibiotics. Parallel dilutions were prepared of each bacterium, in the presence and absence of specific antibiotics, as follows: (1) for E. faecalis, E. faecium, Penicillin G was added in varying concentrations, and as these concentrations were held constant, the bacterial concentration was diluted out; (2) the same parameters were set for GBS with the antibiotic clindamycin; and (3) the same parameters were set for N. gonorrheae with the antibiotic ceftriaxone.
(§4) Following overnight incubation in the presence or absence of the selected antibiotics, 100 μl of the bacterial suspensions were placed into previously coated wells, and plates were allowed to stand at room temperature for 15 minutes. After washing with PBS TWEEN 20 three times, 100 μl of HRP-conjugated antibody directed against the specific bacteria was added in a 1:100 dilution, and allowed to stand at room temperature for 7 minutes. Wells were washed three times with PBS TWEEN 20, and bound antibody was detected by the addition of 100 μl of TMB substrate. OD450) was read after allowing the plate to stand for 3 minutes at room temperature and stopping the reaction with stop solution (KPL).
(§5) After adding stop solution, wells were read at OD450. […] Alternatively, wells were determined to be positive if they turned yellow after addition of the stop solution, if a plate reader was not available.
(§6) These studies were repeated for E. faecalis, E. faecium and N. gonorrheae. For E. faecalis and E. faecium, Penicillin G was used to distinguish between E. faecalis and E. faecium, as E. faecium is resistant to Penicillin G. For N. gonorrheae, the antibiotic used was ceftriaxone.

[2] = tested on: N. gonorrheae (Ceftriaxone Resistant); assay: as above; assay type: cell-based, Neisseria gonorrheae; details: With Ceftriaxone Present, 2 μg/ml
Method: as §1, §2, §3, §4, §5, §6

[3] = tested on: Clindamycin Resistant Strain (GBS 11276); assay: N-Assay antibiotic susceptibility, GBS with Clindamycin (Example 6); assay type: cell-based, Group B Streptococcus (GBS); details: for Detection of GBS: With Clindamycin Present, 4 μg/ml, 18 hour incubation in nutrient broth, resistant strain GBS 11276
Method: as §1, §2, §3
Following overnight incubation in the presence or absence of the selected antibiotics, 100 μl of the bacterial suspensions were placed into previously coated wells, and plates were allowed to stand at room temperature for 15 minutes. […] Wells were washed three times with PBS TWEEN 20, and bound antibody was detected by the addition of 100 μl of TMB substrate. OD450) was read after allowing the plate to stand for 3 minutes at room temperature and stopping the reaction with stop solution (KPL).
After adding stop solution, wells were read at OD450. […] Alternatively, wells were determined to be positive if they turned yellow after addition of the stop solution, if a plate reader was not available. […]

[4] = tested on: penicillin-sensitive (Pen-S) Strain 1279; assay: Simultaneous identification of N. gonorrheae and antimicrobial susceptibility (Example 4); assay type: cell-based; details: penicillin 0.5, 1.0, 2.0 μg/ml, 10^8 bacteria
Method: (§7) Two strains of N. gonorrheae, penicillin-sensitive (Pen-S) Strain 1279 and penicillin-resistant (Pen-R) Strain 31426, were cultured overnight on Gc agar. A 0.5 McFarland was prepared immediately before wells were to be inoculated, and the two strains were each diluted to a concentration of 10^8 in FB. The bacteria-containing FB for each strain was split into four tubes, in which a different concentration of penicillin was added to each of the tubes of the two strains: 2.0 μg/ml, 1.0 μg/ml, 0.5 μg/ml, and buffer alone as a negative control. Microtiter wells were coated with 100 μl of a 1:200 dilution of rabbit polyclonal antibody directed against N. gonorrheae, and allowed to stand at 4 degrees Celsius overnight. […] Following blocking, wells were again washed three times with PBS. At this stage, the plates were either used immediately, or stored at 4 degrees Celsius for later use. Upon proceeding with the assay, 100 μl of the 10^8 dilution of the two strains of N. gonorrheae were placed in individual wells. The wells were shaken gently on a plate stirrer at room temperature for 15 minutes. Next, wells were washed three times with PBS, and 100 μl of an HRP-conjugated rabbit polyclonal antibody (1:50 dilution in PBS) directed against N. gonorrheae was added to the wells and incubated at room temperature for 5 minutes. Wells were washed three times with PBS, and then bound antibody was detected by the addition of 100 μl of TMB substrate. OD450) was read after allowing the plate to stand for three minutes at room temperature and stopping the reaction with stop solution (KPL). Negative controls consisted of the same preceding steps, but the addition of bacteria was omitted.

[5] = tested on: penicillin-resistant (Pen-R) Strain 31426; assay: as above; assay type: cell-based
Method: as §7

[6] = tested on: Enterococcus faecium (Penicillin Resistant, i.e., VRE); assay: N-Assay antibiotic susceptibility, Enterococcus with Penicillin G (Example 6); assay type: cell-based; details: for Detection of Enterococcus faecium: With Penicillin Present, 8 μg/ml Penicillin G, 18 hour incubation in nutrient broth
Method: as §1, §2, §3, §4, §5, §6

[7] = tested on: Enterococcus faecalis (Penicillin Sensitive); assay: as above; assay type: cell-based; details: for Detection of Enterococcus faecalis: With Penicillin Present, 8 μg/ml Penicillin G, 18 hour incubation in nutrient broth
Method: as §1, §2, §3, §4, §5, §6

SMILES: CO/N=C(\C(=O)N[C@@H]1C(=O)N2C(C(=O)O)=C(CSc3nc(=O)c(=O)[nH]n3C)CS[C@H]12)c1csc(N)n1 [Ceftriaxone, ceftriaxone]
- N-Assay result of wells containing N. gonorrheae [1]: negative
- Detection of Neisseria gonorrheae ([2]; 18 hour incubation in nutrient broth, 0.1 CFU/ml): +
- Detection of Neisseria gonorrheae ([2]; 18 hour incubation in nutrient broth, 1 CFU/ml): +
- Detection of Neisseria gonorrheae ([2]; 18 hour incubation in nutrient broth, 10 CFU/ml): +
- Detection of Neisseria gonorrheae ([2]; 18 hour incubation in nutrient broth, 100 CFU/ml): +
- Detection of Neisseria gonorrheae ([2]; 18 hour incubation in nutrient broth, 1,000 CFU/ml): +
- Detection of Neisseria gonorrheae ([2]; 18 hour incubation in nutrient broth, 10,000 CFU/ml): +

SMILES: CCC[C@@H]1C[C@@H](C(=O)N[C@@H]([C@H]2O[C@H](SC)[C@H](O)[C@@H](O)[C@H]2O)[C@H](C)Cl)N(C)C1 [Clindamycin, clindamycin]
- Detection of GBS ([3]; 10 CFU/ml): +
- Detection of GBS ([3]; 100 CFU/ml): +
- Detection of GBS ([3]; 1,000 CFU/ml): +
- Detection of GBS ([3]; 10,000 CFU/ml): +
- lowest dilution at which GBS resistant to Clindamycin was positive ([3]; summary of Table 1, incubated 24 hours at 37° C. with Clindamycin): 100 bacteria/ml

SMILES: CC1(C)S[C@@H]2[C@H](NC(=O)Cc3ccccc3)C(=O)N2[C@H]1C(=O)O [Penicillin G, penicillin G]
- OD450 signal of bound N. gonorrheae with increasing concentrations of penicillin [4]: progressively decreasing positive signal
- OD450 signal of bound N. gonorrheae between concentrations of penicillin ([5]; penicillin 0.5, 1.0, 2.0 μg/ml, 10^8 bacteria, Pen-R Strain 31426): did not significantly vary
- growth by turbidity at OD600 ([5]; wells containing Pen-R strain 31426 with penicillin): increasing turbidity
- lowest dilution at which E. faecium was positive ([6]; Table 2, with Penicillin G): 100 bacteria/ml
- Detection of Enterococcus faecium ([6]; 1 CFU/ml): +
- Detection of Enterococcus faecium ([6]; 10 CFU/ml): +
- Detection of Enterococcus faecium ([6]; 100 CFU/ml): +
- Detection of Enterococcus faecium ([6]; 1,000 CFU/ml): +
- Detection of Enterococcus faecium ([6]; 10,000 CFU/ml): +
- Detection of Enterococcus faecium ([6]; 100,000 CFU/ml): +
- Detection of Enterococcus faecium ([6]; 1,000,000 CFU/ml): +
- Detection of Enterococcus faecium ([6]; 10,000,000 CFU/ml): +
- N-Assay result of wells containing E. faecalis ([7]; Table 2, with Penicillin G): negative
- Detection of Enterococcus faecalis ([7]; 100,000 CFU/ml): +
- Detection of Enterococcus faecalis ([7]; 1,000,000 CFU/ml): +
- Detection of Enterococcus faecalis ([7]; 10,000,000 CFU/ml): +
